Measured values as given in patent US11351268B2, “FGF21 C-terminal peptide optimization” (INDIANA UNIVERSITY RESEARCH AND TECHNOLOGY CORPORATION, priority 2016, dated 2022).
Non-standard residues stand in square brackets, D forms with d. Residues, ends and D or L forms follow the SMILES beside them. No end group written: not given here.

Target: T1, Klotho β (KLB) (Homo sapiens, UniProt Q86Z14)
T1 construct: expressed in transfected cells; host or cells: HEK 293T (ATCC), pooled Zeocin-selected cells stably expressing hKLB from pcDNA3.1(+)
T1 sequence (Q86Z14 1-1044): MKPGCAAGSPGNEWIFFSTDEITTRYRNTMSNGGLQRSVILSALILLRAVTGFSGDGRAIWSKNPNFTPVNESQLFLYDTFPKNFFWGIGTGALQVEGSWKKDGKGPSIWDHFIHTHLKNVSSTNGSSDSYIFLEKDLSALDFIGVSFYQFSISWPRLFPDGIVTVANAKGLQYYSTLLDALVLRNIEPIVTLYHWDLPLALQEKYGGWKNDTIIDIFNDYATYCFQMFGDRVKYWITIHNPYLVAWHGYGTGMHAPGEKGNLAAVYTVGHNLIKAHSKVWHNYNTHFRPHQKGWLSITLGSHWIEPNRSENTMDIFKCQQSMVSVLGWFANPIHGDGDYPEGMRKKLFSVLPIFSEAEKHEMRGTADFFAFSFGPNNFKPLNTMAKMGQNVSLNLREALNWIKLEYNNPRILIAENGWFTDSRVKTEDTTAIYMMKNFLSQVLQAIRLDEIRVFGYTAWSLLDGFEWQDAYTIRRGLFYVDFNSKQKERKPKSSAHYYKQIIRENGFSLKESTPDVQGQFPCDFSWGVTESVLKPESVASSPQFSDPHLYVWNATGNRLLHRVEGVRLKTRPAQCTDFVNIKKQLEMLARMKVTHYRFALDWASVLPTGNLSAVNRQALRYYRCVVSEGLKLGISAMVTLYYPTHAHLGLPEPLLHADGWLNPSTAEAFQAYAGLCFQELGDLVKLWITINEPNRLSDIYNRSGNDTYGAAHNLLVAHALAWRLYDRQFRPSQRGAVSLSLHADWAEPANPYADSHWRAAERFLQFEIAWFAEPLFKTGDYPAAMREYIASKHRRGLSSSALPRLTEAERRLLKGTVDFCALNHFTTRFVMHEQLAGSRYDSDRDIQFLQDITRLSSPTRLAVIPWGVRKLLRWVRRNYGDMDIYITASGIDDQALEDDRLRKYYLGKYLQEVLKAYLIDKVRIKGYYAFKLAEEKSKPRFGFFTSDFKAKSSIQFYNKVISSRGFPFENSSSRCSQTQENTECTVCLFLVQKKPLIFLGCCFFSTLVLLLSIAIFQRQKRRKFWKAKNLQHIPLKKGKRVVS
Assay: cell-based
Assay type: cell-based
Settings: for % Activity vs C25: Table 3, D-amino acid scan, C25 = 100; for Emax: Table 1, native sequence = 100% response, read-out: % max activity; for antagonism of FGF21 activity (in words): 10 nM FGF21 stimulation, 293 HEK hKLB cells
Experimental: Cells were cultured in 10% Fetal Bovine Serum containing DMEM High glucose GLUTAMAX® at 37 C, 95% humidity, 5% CO2. For generating the cell line with stable expression, human KLB gene was synthesized by Genscript and subcloned into pcDNA3.1(+) with ZEOCIN® resistance vector (INVITROGEN®) by NheI and NotI restriction enzyme sites. HEK 293T cells were obtained from ATCC and were transiently transfected at 80% confluency using Lipofectamine 3000 (Invitrogen). Selection for KLB-expressing cells was initiated 48 hours post-transfection in the growth media containing 100 μg/ml of ZEOCIN® (Gibco) and continued for 4 weeks with fresh media added every third day. Human KLB expression in pooled cells was confirmed by Western blot and a functional FGF21 MAPK phosphorylation assay.
293 HEK cells expressing hKLB were plated to 90% confluency in 96 well plates coated with poly-D-Lysine. Cells were serum starved for three hours in 0.1% BSA containing media prior to stimulation with protein and/or an antagonist peptide for ten minutes at 37° C. The cell lysate was used for the detection of phospho-Erk1/2 levels by AlphaSureFire kit using the prescribed protocol. The degree of biochemical activation was recorded and analyzed using Origin software by logistic curve fitting. Tests at each concentration were done in triplicates, and the standard deviation is as shown in the graphs. The calculation of maximal activities was done keeping the FGF21 157-181 or FGF19 169-194 peptide activity as standard. The difference between the Erk1/2 phosphorylation signal for the highest (10 μM) and the lowest (0 μM) tested dose for native peptide was considered as 100% and accordingly all the other values were assigned.

[1] = Table 5, FGF19/FGF21 chimeric peptides
[2] = FIG. 8A, substitutions at terminal position of FGF19 169-194 peptide
[3] = FIG. 8B, FGF21 and FGF19 C-terminal peptides
[4] = Table 6, derivatives of SEQ ID NO: 180

## CSCC[C@H](NC(=O)[C@H](CO)NC(=O)[C@H](CC(C)C)NC(=O)[C@@H]1CCCN1C(=O)[C@H](CC(=O)O)NC(=O)[C@H](CO)NC(=O)[C@H](CO)NC(=O)CNC(=O)[C@@H](NC(=O)[C@H](CC(=O)O)NC(=O)[C@@H]1CCCN1C(=O)[C@@H]1CCCN1)C(C)C)C(=O)N[C@H](C(=O)NCC(=O)N1CCC[C@H]1C(=O)N[C@@H](CO)C(=O)N[C@@H](CCC(N)=O)C(=O)NCC(=O)N[C@H](CCCNC(=N)N)C(=O)N[C@@H](CO)C(=O)N1CCC[C@H]1C(=O)N[C@@H](CO)C(=O)N[C@@H](Cc1ccc(O)cc1)C(=O)N[C@@H](C)C(=O)N[C@@H](CO)C(N)=O)C(C)C [d19, PPDVG SSDPL SMVGP SQGrS PSYAS] (H-PPDVGSSDPLSMVGPSQG[dR]SPSYAS-NH2; N-terminus and C-terminus assumed)
  % Activity vs C25: 270.70 ± 136.83%
Relative to native C-terminal peptide
  fold increase of antagonistic potency over the native peptide: 2 fold

## CSCC[C@H](NC(=O)[C@H](CO)NC(=O)[C@H](CC(C)C)NC(=O)[C@@H]1CCCN1C(=O)[C@H](CC(=O)O)NC(=O)[C@H](CO)NC(=O)[C@H](CO)NC(=O)CNC(=O)[C@@H](NC(=O)[C@H](CC(=O)O)NC(=O)[C@@H]1CCCN1C(=O)[C@@H]1CCCN1)C(C)C)C(=O)N[C@H](C(=O)NCC(=O)N1CCC[C@H]1C(=O)N[C@@H](CO)C(=O)N[C@@H](CCC(N)=O)C(=O)NCC(=O)N[C@@H](CCCNC(=N)N)C(=O)N[C@@H](CO)C(=O)N1CCC[C@@H]1C(=O)N[C@@H](CO)C(=O)N[C@@H](Cc1ccc(O)cc1)C(=O)N[C@@H](C)C(=O)N[C@@H](CO)C(N)=O)C(C)C [d21, PPDVG SSDPL SMVGP SQGRS pSYAS] (H-PPDVGSSDPLSMVGPSQGRS[dP]SYAS-NH2; N-terminus and C-terminus assumed)
  % Activity vs C25: 3.80 ± 0.87%

## CSCC[C@H](NC(=O)[C@H](CO)NC(=O)[C@H](CC(C)C)NC(=O)[C@@H]1CCCN1C(=O)[C@H](CC(=O)O)NC(=O)[C@H](CO)NC(=O)[C@H](CO)NC(=O)CNC(=O)[C@@H](NC(=O)[C@H](CC(=O)O)NC(=O)[C@@H]1CCCN1C(=O)[C@@H]1CCCN1)C(C)C)C(=O)N[C@H](C(=O)NCC(=O)N1CCC[C@H]1C(=O)N[C@@H](CO)C(=O)N[C@@H](CCC(N)=O)C(=O)NCC(=O)N[C@@H](CCCNC(=N)N)C(=O)N[C@@H](CO)C(=O)N1CCC[C@H]1C(=O)N[C@@H](CO)C(=O)N[C@@H](Cc1ccc(O)cc1)C(=O)N[C@@H](C)C(=O)N[C@H](CO)C(N)=O)C(C)C [d25, PPDVG SSDPL SMVGP SQGRS PSYAs] (H-PPDVGSSDPLSMVGPSQGRSPSYA[dS]-NH2; N-terminus and C-terminus assumed)
Table 3, D-amino acid scan of FGF21 C-terminal 25mer
  IC50: 264 ± 120 nM

## APDVGSSDPLSMVGPSQGRSPSYAS-NH2 (C-terminus assumed) [Peptide A1, APDVGSSDPLSMVGPSQGRSPSYAS]
  Emax: 100%

## FGF19 (amino acids 165-194): C-terminal peptide of FGF19, amino acids 165-194 (FLPMLPMVPEEPEDLRGHLESDMFSSPLET) [reference compound]
  antagonism of FGF21 activity (in words): exhibit antagonism to FGF21 activity

## FGF21 159-181: 23-amino acid C-terminal fragment of FGF21 (DVGSSDPLSMVGPSQGRSPSYAS; UniProt Q9NSA1 187-209, looked up, fragment) [reference compound]
  antagonism of FGF21 activity (in words): weak antagonism

## FGF21 160-181: C-terminal fragment of FGF21 described as 24-amino acid (VGSSDPLSMVGPSQGRSPSYAS; UniProt Q9NSA1 188-209, looked up, fragment) [reference compound]
  antagonism of FGF21 activity (in words): dramatically improved its antagonistic potential

## FGF21 162-181: C-terminal fragment of FGF21, residues 162-181 (SSDPLSMVGPSQGRSPSYAS) [reference compound]
  antagonism of FGF21 activity (in words): non-functional

## FGF21 (amino acids 153-181): C-terminal peptide of FGF21, amino acids 153-181 (LAPQPPDVGSSDPLSMVGPSQGRSPSYAS) [reference compound]
  antagonism of FGF21 activity (in words): exhibit antagonism to FGF21 activity

## PADVGSSDPLSMVGPSQGRSPSYAS-NH2 (C-terminus assumed) [Peptide A2, PADVGSSDPLSMVGPSQGRSPSYAS]
  Emax: 98.5%

## PLETDSMDPFGLVGPSQGRSPSFEA-NH2 (C-terminus assumed) [Peptide 0430]
[1]
  IC50: 15.9 ± 1.1 nM

## PLETDSMDPFGLVTGLEAVRSPSFEA-NH2 (C-terminus assumed) [FGF19 A25]
[2]
  IC50: 10.5 nM
[3]
  IC50: 0.5 nM
[1]
  IC50: 19.1 ± 1.5 nM

## PLETDSMDPFGLVTGLEAVRSPSFEE-NH2 (C-terminus assumed) [Peptide K194E]
[2]
  IC50: 87.9 nM

## PLETDSMDPFGLVTGLEAVRSPSFEK-NH2 (C-terminus assumed) [FGF19 WT, reference compound]
[3]
  IC50: 50 nM
Table 2(A), FGF19 169-194 alanine mutants, ≥95% maximal activity
  IC50: 270 ± 90 nM

## PLETDSMDPFGLVTGLEAVRSPSFEL-NH2 (C-terminus assumed) [Peptide K194L]
[2]
  IC50: 17.3 nM

## PLETDSMDPFGLVTGLEAVRSPSFES-NH2 (C-terminus assumed) [Peptide K194S]
[2]
  IC50: 22.3 nM

## PLETDSSDPLSMVGPSQGRSPSFEA-NH2 (C-terminus assumed) [Peptide 0432]
[1]
  IC50: 120 ± 6.3 nM

## PLETDSSDPLSMVTGLEAVRSPSYAA-NH2 (C-terminus assumed) [Peptide 0434]
[1]
  IC50: 264 ± 78.8 nM

## PPAVGSSDPLSMVGPSQGRSPSYAS-NH2 (C-terminus assumed) [Peptide A3, PPAVGSSDPLSMVGPSQGRSPSYAS]
  Emax: 87.8%

## PPDAGSSDPLSMVGPSQGRSPSYAS-NH2 (C-terminus assumed) [Peptide A4, PPDAGSSDPLSMVGPSQGRSPSYAS]
  Emax: 63.6%

## PPDVASSDPLSMVGPSQGRSPSYAS-NH2 (C-terminus assumed) [Peptide A5, PPDVASSDPLSMVGPSQGRSPSYAS]
  % max activity: 102.5%

## PPDVFSMDPFGLVGPSQGRSPSFEA-NH2 (C-terminus assumed) [Peptide 0480]
[4]
  IC50: 2.6 ± 0.5 nM

## PPDVGASDPLSMVGPSQGRSPSYAS-NH2 (C-terminus assumed) [Peptide A6, PPDVGASDPLSMVGPSQGRSPSYAS]
  Emax: 89.2%

## PPDVGSADPLSMVGPSQGRSPSYAS-NH2 (C-terminus assumed) [Peptide A7, PPDVGSADPLSMVGPSQGRSPSYAS]
  Emax: 94.5%

## PPDVGSMDPFGLVGPSQGRSPSFEA-NH2 (C-terminus assumed) [Peptide 0431]
[1]
  IC50: 4.1 ± 0.1 nM
[4]
  IC50: 7.1 ± 3 nM

## PPDVGSMDPFGLVGRSQGRSPSFEA-NH2 (C-terminus assumed) [Peptide 0470]
[4]
  IC50: 4.9 ± 1.1 nM

## PPDVGSMDPFGLVTGLEAVRSPSYAA-NH2 (C-terminus assumed) [Peptide 0433]
[1]
  IC50: 10.7 ± 0.7 nM

## PPDVGSSDPASMVGPSQGRSPSYAS-NH2 (C-terminus assumed) [Peptide A10, PPDVGSSDPASMVGPSQGRSPSYAS]
  Emax: 76%

## PPDVGSSDPFGLVGPSQGRSPSFEA-NH2 (C-terminus assumed) [Peptide 0486]
[4]
  IC50: 4.7 ± 1.6 nM
